Test results taken from ChEMBL document CHEMBL5518172, “Discovery of hydroxamate as a promising scaffold dually inhibiting metallo- and serine-β-lactamases” (Eur J Med Chem, 2024).

What was measured:
Bacteria [1] = experiment: Inhibition of recombinant serine beta lactamase KPC-2 (unknown origin) expressed in Escherichia coli BL21 (DE3) cells using meropenem as substrate at 20 uM by spectrometric analysis relative to control
Bacteria [2] = experiment: Inhibition of recombinant serine beta lactamase OXA-48 (unknown origin) expressed in Escherichia coli BL21 (DE3) cells using meropenem as substrate at 20 uM by spectrometric analysis relative to control
[3] = target: Metallo-beta-lactamase type 2 (Bacteria, UniProt C7C422); experiment: Inhibition of recombinant NDM-1 (unknown origin) expressed in Escherichia coli BL21 (DE3) cells using meropenem as substrate by spectrometric analysis
[4] = Inhibition of recombinant metallo-beta-lactamase IMP-1 (unknown origin) expressed in Escherichia coli BL21 (DE3) cells using meropenem as substrate by spectrometric analysis; set-up: species or system Bacteria
[5] = Inhibition of recombinant serine beta lactamase OXA-48 (unknown origin) expressed in Escherichia coli BL21 (DE3) cells using meropenem as substrate by spectrometric analysis; set-up: species or system Bacteria
[6] = Inhibition of recombinant serine beta lactamase KPC-2 (unknown origin) expressed in Escherichia coli BL21 (DE3) cells using meropenem as substrate by spectrometric analysis; set-up: species or system Bacteria
Escherichia coli [7] = experiment: Synergistic antibacterial activity against Escherichia coli BL21 (DE3) harboring NDM-1 assessed as meropenem MIC at 64 microg/ml measured after 16 hrs by CLSI protocol based broth microdilution method (reference value: 256 microg/ml); format: functional; conditions: dose 64 µg/ml
Escherichia coli [8] = experiment: Synergistic antibacterial activity against Escherichia coli BL21 (DE3) harboring metallo-beta-lactamase IMP-1 assessed as meropenem MIC at 64 microg/ml measured after 16 hrs by CLSI protocol based broth microdilution method (reference value: 64 microg/ml); format: functional; conditions: dose 64 µg/ml
Escherichia coli [9] = experiment: Synergistic antibacterial activity against Escherichia coli BL21 (DE3) harboring serine beta lactamase KPC-2 assessed as meropenem MIC at 64 microg/ml measured after 16 hrs by CLSI protocol based broth microdilution method (reference value: 16 microg/ml); format: functional; conditions: dose 64 µg/ml
Escherichia coli [10] = experiment: Synergistic antibacterial activity against Escherichia coli BL21 (DE3) harboring serine beta lactamase OXA-48 assessed as meropenem MIC at 64 microg/ml measured after 16 hrs by CLSI protocol based broth microdilution method (reference value: 1 microg/ml); format: functional; conditions: dose 64 µg/ml
Escherichia coli [11] = experiment: Synergistic antibacterial activity against Escherichia coli BL21 (DE3) harboring NDM-1 assessed as fold decrease in meropenem MIC at 64 microg/ml measured after 16 hrs by CLSI protocol based broth microdilution method; format: functional; conditions: dose 64 µg/ml
Escherichia coli [12] = experiment: Synergistic antibacterial activity against Escherichia coli BL21 (DE3) harboring metallo-beta lactamase IMP-1 assessed as fold decrease in meropenem MIC at 64 microg/ml measured after 16 hrs by CLSI protocol based broth microdilution method; format: functional; conditions: dose 64 µg/ml
Escherichia coli [13] = experiment: Synergistic antibacterial activity against Escherichia coli BL21 (DE3) harboring serine beta lactamase KPC-2 assessed as fold decrease in meropenem MIC at 64 microg/ml measured after 16 hrs by CLSI protocol based broth microdilution method; format: functional; conditions: dose 64 µg/ml
[14] = target: Metallo-beta-lactamase type 2 (Bacteria) (UniProt C7C422); experiment: Inhibition of recombinant NDM-1 (unknown origin) expressed in Escherichia coli BL21 (DE3) cells using meropenem as substrate at 20 uM by spectrometric analysis relative to control
Bacteria [15] = experiment: Inhibition of recombinant metallo-beta-lactamase IMP-1 (unknown origin) expressed in Escherichia coli BL21 (DE3) cells using cefazolin as substrate at 20 uM by spectrometric analysis relative to control
Bacteria [16] = experiment: Inhibition of recombinant metallo-beta-lactamase ImiS (unknown origin) expressed in Escherichia coli BL21 (DE3) cells using meropenem as substrate at 20 uM by spectrometric analysis relative to control
Bacteria [17] = experiment: Inhibition of recombinant metallo-beta-lactamase L-1 (unknown origin) expressed in Escherichia coli BL21 (DE3) cells using cefazolin as substrate at 20 uM by spectrometric analysis relative to control
Escherichia coli [18] = experiment: Synergistic antibacterial activity against Escherichia coli BL21 (DE3) harboring serine beta lactamase OXA-48 assessed as fold decrease in meropenem MIC at 64 microg/ml measured after 16 hrs by CLSI protocol based broth microdilution method; format: functional; conditions: dose 64 µg/ml

Chain of Metallo-beta-lactamase type 2 (C7C422 whole entry): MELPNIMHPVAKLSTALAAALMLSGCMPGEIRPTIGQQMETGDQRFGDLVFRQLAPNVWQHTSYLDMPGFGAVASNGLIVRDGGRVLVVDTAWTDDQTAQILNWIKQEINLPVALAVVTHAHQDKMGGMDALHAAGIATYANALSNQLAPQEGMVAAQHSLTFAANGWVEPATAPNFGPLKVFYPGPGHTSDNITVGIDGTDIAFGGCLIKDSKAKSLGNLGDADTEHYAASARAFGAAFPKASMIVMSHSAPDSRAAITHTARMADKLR
Chain of Metallo-beta-lactamase type 2 (Bacteria) (C7C422 whole entry): as above

| SMILES | inhibition (Bacteria [1]) [%] | inhibition (Bacteria [2]) [%] | IC50 [3] [µM] | IC50 [4] [µM] | IC50 [5] [µM] | IC50 [6] [µM] | MIC (Escherichia coli [7]) [µg/mL] | MIC (Escherichia coli [8]) [µg/mL] | MIC (Escherichia coli [9]) [µg/mL] | MIC (Escherichia coli [10]) [µg/mL] | fold change (FC) (Escherichia coli [11]) | fold change (FC) (Escherichia coli [12]) | fold change (FC) (Escherichia coli [13]) | inhibition [14] [%] | inhibition (Bacteria [15]) [%] | inhibition (Bacteria [16]) [%] | inhibition (Bacteria [17]) [%] | fold change (FC) (Escherichia coli [18]) |
| --- | --- | --- | --- | --- | --- | --- | --- | --- | --- | --- | --- | --- | --- | --- | --- | --- | --- | --- |
| CC(C)COC(=O)ONC(=O)CCc1ccccc1 | > 90 | > 90 | 6.01 | 12.4 | 2.74 | 4.56 | 128 | 32 | 8 | 1 | 2 | 2 | 2 | – | – | – | – | – |
| CCCCCOC(=O)ONC(=O)CCc1ccccc1 | – | – | 4.72 | 1.73 | 9.08 | 4.51 | 64 | 16 | 8 | 1 | 2 | 2 | 2 | > 90 | > 90 | < 42 | < 42 | – |
| CC(=O)NOC(=O)OCc1ccccc1 | – | – | 3.21 | 2.42 | > 50 | > 50 | 64 | 32 | 16 | 1 | 2 | 2 | – | > 90 | > 90 | < 42 | < 42 | – |
| O=C(CC(c1ccccc1)c1ccccc1)NOC(=O)OCc1ccccc1 | – | – | 0.84 | 0.65 | 5.45 | 1.96 | 64 | 64 | 8 | 0.5 | – | – | 2 | > 90 | > 90 | < 42 | < 42 | 2 |
| O=C(OCc1ccccc1)ONC(=O)C1CCCCC1 | – | – | 41.1 | 27.2 | 6.71 | 41.9 | 128 | 64 | 16 | 1 | – | – | – | – | – | – | – | – |
| CCCCCOC(=O)ONC(=O)C(CC)c1ccccc1 (centres undefined) | – | – | 35.3 | 23 | 22.3 | 17.5 | 128 | 32 | 8 | 1 | 2 | 2 | 2 | – | – | – | – | – |
| O=C(OCc1ccccc1)ONC(=O)c1ccccc1 | – | – | 2.62 | 2.38 | > 50 | > 50 | 128 | 64 | 16 | 1 | – | – | – | > 90 | > 90 | < 42 | < 42 | – |
| O=C(CCc1ccccc1)NOC(=O)OCc1ccccc1 | > 90 | > 90 | 2.18 | 1.69 | 3.09 | 2.66 | 64 | 32 | 8 | 1 | 2 | 2 | 2 | > 90 | > 90 | < 42 | < 42 | – |
| CCOC(=O)ONC(=O)CC(c1ccccc1)c1ccccc1 | – | – | 2.24 | 1.64 | 10 | 13.1 | 128 | 64 | 8 | 1 | – | – | 2 | > 90 | > 90 | < 42 | < 42 | – |
| CCOC(=O)ONC(=O)C(CC)c1ccccc1 (centres undefined) | – | – | 37.4 | 32.2 | 32.7 | 28 | 128 | 32 | 16 | 1 | 2 | 2 | – | – | – | – | – | – |
| CCOC(=O)ONC(=O)CCc1ccccc1 | – | – | 5.03 | 1.83 | 8.5 | 7.7 | 128 | 32 | 8 | 0.5 | 2 | 2 | 2 | – | – | – | – | 2 |
